Results from US20210253518A1, “KINASE INHIBITOR” (NISSAN CHEMICAL CORPORATION, priority 2018, published 2021).
pIC50: −log10 of the molar value.

Key:
Type in all cases: biochemical
LATS1 = molecular target: T1, LATS1 (Homo sapiens, UniProt O95835); assay: Kinase Assay method (Fluorospark Kinase/ADP Multi-Assay Kit)
T1 construct: purchased Carna Biosciences
T1 sequence (O95835 589-1130 limits assumed): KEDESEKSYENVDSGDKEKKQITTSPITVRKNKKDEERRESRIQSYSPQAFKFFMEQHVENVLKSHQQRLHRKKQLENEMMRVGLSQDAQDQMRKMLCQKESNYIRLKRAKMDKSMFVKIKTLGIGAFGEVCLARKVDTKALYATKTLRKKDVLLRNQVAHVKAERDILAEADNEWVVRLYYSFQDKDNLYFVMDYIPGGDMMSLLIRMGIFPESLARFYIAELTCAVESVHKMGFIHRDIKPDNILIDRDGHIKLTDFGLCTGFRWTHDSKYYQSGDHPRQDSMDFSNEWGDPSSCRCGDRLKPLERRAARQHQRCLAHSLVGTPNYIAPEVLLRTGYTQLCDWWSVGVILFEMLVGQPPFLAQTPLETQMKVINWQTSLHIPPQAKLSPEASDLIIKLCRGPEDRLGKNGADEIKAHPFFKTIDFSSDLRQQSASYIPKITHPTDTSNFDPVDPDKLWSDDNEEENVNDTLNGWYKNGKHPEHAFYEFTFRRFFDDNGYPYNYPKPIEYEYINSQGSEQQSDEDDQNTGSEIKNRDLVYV
Experimental: (§1) For compound k-1:B-1 (racemate), GA-002A, GA-002B, GA-005A and GA-005B, inhibitory activity evaluation (calculation of IC50) was performed on LATS1 and LATS2 (manufactured by Carna Biosciences). The activity was measured using the Kinase Assay method described below. The compounds were added such that the test concentration of k-1:B-1 (racemate), GA-002A, GA-002B, GA-005A and GA-005B was in 8 steps (10 μM, 1 μM, 100 nM, […], 10 nM, 3 nM, 1 nM, 0.3 nM) from the final concentration of 10 μM to 0.3 nM.
(§2) As the analysis method of the data, the mean signal of the control well containing reaction components other than the evaluation compound was set to 0% inhibition, the mean signal without enzyme addition was set to 100% inhibition, and the inhibition rate was calculated from the mean signal of 2 wells of each test substance test. IC50 value was calculated using EXSUS (version 7.1.6, manufactured by CAC EXICARE Corporation).
(§3) 2 μL of a compound of the present invention solution at 2.5-fold concentration, 1 μL of substrate at 5-fold concentration (SGKtide: NH2—CKKRNRRLSVA-COOH, manufactured by SignalChem), ATP (manufactured by Sigma-Aldrich), MgCl2 (manufactured by FUJIFILM Wako Pure Chemical Corporation) solution (final concentration 10 μM, 400 μM or 5 mM), and 2 μL of kinase solution at 2.5-fold concentration (final concentration of LATS1 or LATS2 5 μg/mL), each prepared with assay buffer (20 mM HEPES, 0.01% Triton X-100, 2 mM DTT, pH 7.5), were mixed in the wells of a polypropylene 384-well plate (manufactured by Greiner Bio-One, #784900) and reacted at room temperature for 5 hr. Successively, 5 μL detection solution (Fluorospark (registered trade mark)Kinase/ADP Multi-Assay Kit; manufactured by FUJIFILM Wako Pure Chemical Corporation) was added, and the mixture was reacted at room temperature 30 min. Successively, 5 μL of a reaction quenching liquid (Fluorospark (registered trade mark) Kinase/ADP Multi-Assay Kit; manufactured by FUJIFILM Wako Pure Chemical Corporation) was added to discontinue the reaction. Thereafter, the ADP concentration of the reaction solution was quantified by EnSpire (manufactured by PerkinElmer) to detect the kinase reaction.

LATS2 [1] = molecular target: T2, LATS2 (Homo sapiens, UniProt Q9NRM7); assay: as above
T2 construct: purchased Carna Biosciences
T2 sequence (Q9NRM7 553-1088 limits assumed): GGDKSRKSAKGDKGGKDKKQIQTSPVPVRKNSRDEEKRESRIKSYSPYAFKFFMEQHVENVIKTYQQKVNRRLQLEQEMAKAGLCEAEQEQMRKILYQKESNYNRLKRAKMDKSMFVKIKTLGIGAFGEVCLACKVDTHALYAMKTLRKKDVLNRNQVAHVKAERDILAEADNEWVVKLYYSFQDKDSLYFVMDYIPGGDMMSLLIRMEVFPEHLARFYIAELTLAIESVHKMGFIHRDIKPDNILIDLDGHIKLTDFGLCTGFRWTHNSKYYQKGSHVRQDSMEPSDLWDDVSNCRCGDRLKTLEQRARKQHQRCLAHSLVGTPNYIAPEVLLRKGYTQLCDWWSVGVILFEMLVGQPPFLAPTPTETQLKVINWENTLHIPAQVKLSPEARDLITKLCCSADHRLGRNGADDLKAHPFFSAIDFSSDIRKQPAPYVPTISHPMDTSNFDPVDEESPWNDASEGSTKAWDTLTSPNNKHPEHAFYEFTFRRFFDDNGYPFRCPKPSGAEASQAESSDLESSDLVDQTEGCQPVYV
Experimental: as §1, §2, §3

LATS2 [2] = molecular target: T3, LATS2 (Homo sapiens, UniProt Q9NRM7); assay: Off-chip Mobility Shift Assay (MSA method), kinase inhibition; conditions: MSA method; 10 steps from 10 μM to 0.3 nM
T3 sequence (Q9NRM7 1-1088): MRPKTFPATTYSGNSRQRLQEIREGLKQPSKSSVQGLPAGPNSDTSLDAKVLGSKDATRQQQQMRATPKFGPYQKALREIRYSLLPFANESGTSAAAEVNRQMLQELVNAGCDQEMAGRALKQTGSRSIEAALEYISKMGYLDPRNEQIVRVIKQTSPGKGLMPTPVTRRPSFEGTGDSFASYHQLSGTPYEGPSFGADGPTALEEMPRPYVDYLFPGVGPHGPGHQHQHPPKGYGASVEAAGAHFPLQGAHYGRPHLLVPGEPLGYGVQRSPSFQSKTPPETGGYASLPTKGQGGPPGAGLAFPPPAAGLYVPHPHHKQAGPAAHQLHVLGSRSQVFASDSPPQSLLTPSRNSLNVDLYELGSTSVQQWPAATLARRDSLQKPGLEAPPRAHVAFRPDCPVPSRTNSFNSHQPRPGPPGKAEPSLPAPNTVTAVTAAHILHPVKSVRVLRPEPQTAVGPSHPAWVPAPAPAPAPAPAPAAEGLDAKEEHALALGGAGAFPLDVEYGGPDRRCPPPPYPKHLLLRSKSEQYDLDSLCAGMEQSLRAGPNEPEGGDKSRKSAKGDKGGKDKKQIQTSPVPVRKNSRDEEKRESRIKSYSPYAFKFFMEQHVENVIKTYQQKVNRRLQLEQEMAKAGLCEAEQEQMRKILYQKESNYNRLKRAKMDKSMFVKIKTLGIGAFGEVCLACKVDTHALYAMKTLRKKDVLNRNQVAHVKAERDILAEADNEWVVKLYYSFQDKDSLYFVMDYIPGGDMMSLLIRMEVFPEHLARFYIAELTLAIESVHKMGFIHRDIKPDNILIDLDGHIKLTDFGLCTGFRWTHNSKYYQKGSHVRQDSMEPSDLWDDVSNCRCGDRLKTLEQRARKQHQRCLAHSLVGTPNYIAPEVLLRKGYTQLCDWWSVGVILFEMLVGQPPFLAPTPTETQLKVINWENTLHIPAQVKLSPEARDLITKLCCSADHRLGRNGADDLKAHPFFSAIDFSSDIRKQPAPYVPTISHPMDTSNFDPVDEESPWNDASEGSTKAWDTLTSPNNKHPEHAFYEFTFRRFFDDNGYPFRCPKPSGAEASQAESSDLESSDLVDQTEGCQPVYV
Experimental: For compound k-1:B-1, inhibitory activity evaluation (calculation of 50% inhibitory concentration (IC50)) was performed on 8 kinds of kinases (CGK2, LATS2, MSK1, p70S6K, PKACα, PKACβ, SGK2, SGK3). The activity was measured using the Off-chip Mobility Shift Assay (MSA method) described below. The compound was added such that the test concentration of k-1:B-1 was in 10 steps from the final concentration of 10 μM to 0.3 nM.
As an analysis method of the data, the mean signal of the control well containing all reaction components was set to 0% inhibition, the mean signal without enzyme addition was set to 100% inhibition, and the inhibition rate was calculated from the mean signal of 2 wells of each test substance test. The IC50 value was obtained by approximating a plot based on the test substance concentration and inhibition rate to a 4 parameter logistics curve by using the Excel Solver add-in and by the non-linear least squares method.
(§4) 5 μL of k-1:B-1 solution at 4-fold concentration, 5 μL of substrate/ATP/metal solution at 4-fold concentration, and 10 μL of kinase solution at 2-fold concentration, each prepared with assay buffer (20 mM HEPES, 0.01% Triton X-100, 2 mM DTT, pH 7.5), were mixed in the wells of a polypropylene 384-well plate and reacted at room temperature for 1 or 5 hr. Successively, 70 μL of Termination Buffer (QuickScout Screening Assist MSA; Carna Biosciences) was added to discontinue the reaction. Then, the substrate peptide and the phosphorylated peptide in the reaction solution were separated and quantified by the LabChip system (Perkin Elmer). The kinase reaction was evaluated by the resultant product ratio (P/(P+S)) calculated from the substrate peptide peak height (S) and the phosphorylated peptide peak height (P).
For compounds k-1:H-7, k-1:H-1, k-1:D-1, k-1:J-1, and k-1:B-1, inhibitory rate at 100 nM was calculated on 8 kinds of kinases (CGK2, LATS2, MSK1, p70S6K, PKACα, PKACβ, SGK2, SGK3). The activity was measured using the MSA method. As an analysis method of the data, the mean signal of the control well containing all reaction components was set to 0% inhibition, the mean signal without enzyme addition was set to 100% inhibition, and the inhibition rate was calculated from the mean signal of 2 wells of each test substance test.
as §4, with “a compound” for “k-1:B-1”
For compounds k-1:I-1, k-1:D-1, k-1:J-1, k-1:H-1, k-1:H-7, k-1:B-1, k-5:H-1, k-1:H-3, k-1:D-4 and k-1:I-10, inhibitory activity evaluation (calculation of IC50) was performed on LATS2. The activity was measured using the Off-chip Mobility Shift Assay (MSA method) described below. The compounds were added such that the test concentration of each compound was in 10 steps from the final concentration of 10 μM to 0.3 nM.
5 μL of k-1:I-1, k-1:D-1, k-1:J-1, k-1:H-1, k-1:H-7, k-1:B-1, k-5:H-1, k-1:H-3, k-1:D-4 and k-1:I-10 solutions at 4-fold concentration, 5 μL of substrate/ATP/metal solution at 4-fold concentration, and 10 μL of kinase solution at 2-fold concentration, each prepared with assay buffer (20 mM HEPES, 0.01% Triton X-100, 2 mM DTT, pH 7.5), were mixed in the wells of a polypropylene 384-well plate and reacted at room temperature for 1 or 5 hr. […]

[3] = Kinase Assay method, 8 steps 10 μM to 0.3 nM

Q: How did the inhibition at 0.1 µM (LATS1; 100 nM, read-out: LARS1 inhibitory rate (%)) turn out when `CC/C(=N\NC(=O)[C@H](C)Nc1cccc(O)c1)c1ccc(O)c(C)c1O` [GA-005B] was run?
A: 14%

Q: And the inhibition at 1 µM (LATS1; 1000 nM, read-out: LARS1 inhibitory rate (%))?
A: 45%

Q: And the pIC50 (LATS1; [3])?
A: 5.90

Q: And the inhibition at 0.1 µM (LATS2 [1]; 100 nM, read-out: LARS2 inhibitory rate (%))?
A: 27%

Q: And the inhibition at 1 µM (LATS2 [1]; 1000 nM, read-out: LARS2 inhibitory rate (%))?
A: 55%

Q: And the pIC50 (LATS2 [1]; [3])?
A: 6.19

Q: With `CCC(=NNC(=O)CNc1ccccc1O)c1ccc(O)c(C)c1O` [k-1:D-4] as the compound, how does the pIC50 (LATS2 [2]) read?
A: 7.48

Q: With `CCC(=NNC(=O)CNc1cccc(C)c1)c1ccc(O)c(C)c1O` [k-1:H-3] as the compound, how does the pIC50 (LATS2 [2]) read?
A: 7.33

Q: With `CC/C(=N\NC(=O)NCc1ccccc1)c1ccc(O)c(C)c1O` [k-1:I-1] as the compound, how does the pIC50 (LATS2 [2]) read?
A: 7.02

Q: With `CCC(=NNC(=O)NC(C)c1cccc(O)c1)c1ccc(O)c(C)c1O` (centres unmarked) [k-1:I-10] as the compound, how does the pIC50 (LATS2 [2]) read?
A: 7.82

Q: With `Cc1c(O)ccc(C(CC(C)C)=NNC(=O)CNc2ccccc2)c1O` [k-5:H-1] as the compound, how does the pIC50 (LATS2 [2]) read?
A: 7.67
